Assay results reported in patent US20150320774A1, “FORMULATIONS OF CYCLOPHOSPHAMIDE LIQUID CONCENTRATE” (AuroMedics Pharma LLC, priority 2014, published 2015).
Where two headings read alike, the source gives them in different places.

What was measured:
[1] = 500 mg/ml; for colour of solution upon storage: all temperature conditions
Description: Since these solvents provided more than adequate solubility, the stability of the solutions containing cyclophosphamide at a concentration of 500 mg/ml was examined.

[2] = physchem; conditions: organic solvent or mixture
Excerpt: In this example, studies were initiated to determine the solubility of cyclophosphamide monohydrate in pharmaceutically acceptable solvents such as propylene glycol, polyethylene glycol and ethanol.

Structure (SMILES): O.O=P1(N(CCCl)CCCl)NCCCO1 (stereo not shown) [cyclophosphamide monohydrate, 2-[bis(2-chloroethyl)amino]-tetrahydro-2H-1,3,2-oxazaphosphorine-2-oxide monohydrate]
- degradation ([1]; PEG 400 as sole solvent): Significant degradation
- colour of solution upon storage ([1]; PEG 400 as sole solvent): turning visibly yellow in color
- degradation ([1]; PG as sole solvent): Significant degradation
- colour of solution upon storage ([1]; PG as sole solvent): turning visibly yellow in color
- solubility ([2]; ethanol): > 500 mg/mL
- solubility ([2]; polyethylene glycol): > 500 mg/mL
- solubility ([2]; propylene glycol): > 500 mg/mL
